Experimental data published in the supplement of paper PMC11061612.

Assays:
[1] = system: CAPAN-2 (Pancreatic Carcinoma); assay: Bliss excess, mean over the matrix (fraction); higher = more synergy
In short: (§1)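 Cell lines in DMEM/F12 or RPMI with 10% FBS were plated in 1536-well plates, held 24 hours at 37°C, 5% CO2, then given two-drug dose matrices for 72 hours (DMSO typically 0.2%). Viability was read by CellTiter-Glo 2.0 luminescence and scaled as inhibition from 0 (vehicle wells) to 1 (blank wells). Combination Emax is the second-highest inhibition in the matrix; Bliss excess is observed combination effect minus expected EA + EB − EA·EB, EA and EB being single-agent effects.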

[2] = system: CCK-81 (Colorectal Carcinoma); assay: as above
In short: as §1

[3] = system: COLO-320-HSR (Colorectal Carcinoma); assay: as above
In short: as §1

[4] = system: ECC10 (Gastric Carcinoma); assay: as above
In short: as §1

FU97 (Gastric Carcinoma) [5] = assay: as above
In short: as §1

IGR-37 (Melanoma) [6] = assay: as above
In short: as §1

[7] = system: KARPAS-422 (B-Cell Non-Hodgkin's Lymphoma); assay: as above
In short: as §1

[8] = system: NCI-H1581 (Non-Small Cell Lung Carcinoma); assay: as above
In short: as §1

[9] = system: NCI-H1666 (Lung Adenocarcinoma); assay: as above
In short: as §1

[10] = system: NCI-H2066 (Squamous Cell Lung Carcinoma); assay: as above
In short: as §1

[11] = system: NCI-H64 (Small Cell Lung Carcinoma); assay: as above
In short: as §1

NY (Osteosarcoma) [12] = assay: as above
In short: as §1

[13] = system: ONS-76 (Other Solid Carcinomas); assay: as above
In short: as §1

[14] = system: PANC-10-05 (Pancreatic Carcinoma); assay: as above
In short: as §1

[15] = system: TT (Thyroid Gland Carcinoma); assay: as above
In short: as §1

U-2-OS (Osteosarcoma) [16] = assay: as above
In short: as §1

[17] = system: VCaP (Prostate Carcinoma); assay: as above
In short: as §1

[18] = system: CAPAN-2 (Pancreatic Carcinoma); assay: combination Emax (second highest fraction inhibited in the dose matrix, 72 h); higher = more inhibition; extreme values may be limits of the assay
In short: as §1

[19] = system: CCK-81 (Colorectal Carcinoma); assay: as above
In short: as §1

[20] = system: COLO-320-HSR (Colorectal Carcinoma); assay: as above
In short: as §1

[21] = system: ECC10 (Gastric Carcinoma); assay: as above
In short: as §1

FU97 (Gastric Carcinoma) [22] = assay: as above
In short: as §1

IGR-37 (Melanoma) [23] = assay: as above
In short: as §1

[24] = system: KARPAS-422 (B-Cell Non-Hodgkin's Lymphoma); assay: as above
In short: as §1

[25] = system: NCI-H1581 (Non-Small Cell Lung Carcinoma); assay: as above
In short: as §1

[26] = system: NCI-H1666 (Lung Adenocarcinoma); assay: as above
In short: as §1

[27] = system: NCI-H2066 (Squamous Cell Lung Carcinoma); assay: as above
In short: as §1

[28] = system: NCI-H64 (Small Cell Lung Carcinoma); assay: as above
In short: as §1

NY (Osteosarcoma) [29] = assay: as above
In short: as §1

[30] = system: ONS-76 (Other Solid Carcinomas); assay: as above
In short: as §1

[31] = system: PANC-10-05 (Pancreatic Carcinoma); assay: as above
In short: as §1

[32] = system: TT (Thyroid Gland Carcinoma); assay: as above
In short: as §1

U-2-OS (Osteosarcoma) [33] = assay: as above
In short: as §1

[34] = system: VCaP (Prostate Carcinoma); assay: as above
In short: as §1

[35] = system: BICR22 (Oral Cavity Carcinoma); assay: Bliss excess, mean over the matrix (fraction); higher = more synergy
In short: as §1

[36] = system: BICR22 (Oral Cavity Carcinoma); assay: combination Emax (second highest fraction inhibited in the dose matrix, 72 h); higher = more inhibition; extreme values may be limits of the assay
In short: as §1
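For Bliss excess, mean over the matrix in this document: after 72 h of two-drug dosing.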

Row | SMILES | Bliss excess [1] | Bliss excess [2] | Bliss excess [3] | Bliss excess [4] | Bliss excess (FU97 (Gastric Carcinoma) [5]) | Bliss excess (IGR-37 (Melanoma) [6]) | Bliss excess [7] | Bliss excess [8] | Bliss excess [9] | Bliss excess [10] | Bliss excess [11] | Bliss excess (NY (Osteosarcoma) [12]) | Bliss excess [13] | Bliss excess [14] | Bliss excess [15] | Bliss excess (U-2-OS (Osteosarcoma) [16]) | Bliss excess [17] | combination Emax [18] | combination Emax [19] | combination Emax [20] | combination Emax [21] | combination Emax (FU97 (Gastric Carcinoma) [22]) | combination Emax (IGR-37 (Melanoma) [23]) | combination Emax [24] | combination Emax [25] | combination Emax [26] | combination Emax [27] | combination Emax [28] | combination Emax (NY (Osteosarcoma) [29]) | combination Emax [30] | combination Emax [31] | combination Emax [32] | combination Emax (U-2-OS (Osteosarcoma) [33]) | combination Emax [34] | Bliss excess [35] | combination Emax [36]
1 | C=CCn1c(=O)c2cnc(Nc3ccc(N4CCN(C)CC4)cc3)nc2n1-c1cccc(C(C)(C)O)n1 [AZD1775] + CCc1c2c(nc3ccc(O)cc13)-c1cc3c(c(=O)n1C2)COC(=O)[C@]3(O)CC [SN-38] (first compound max 1 µM, partner max 0.3 µM) | -0.0501 | -0.0839 | -0.0294 | -0.0663 | -0.0007 | -0.107 | -0.0699 | 0.0811 | -0.0452 | -0.0821 | -0.017 | -0.0575 | -0.0392 | -0.029 | -0.0838 | -0.0179 | -0.108 | 0.415 | 0.845 | 0.756 | 0.995 | 0.391 | 0.823 | 0.953 | 0.965 | 0.539 | 0.304 | 0.887 | 0.902 | 0.835 | 0.851 | 0.941 | 0.588 | 0.67 |  | 
2 | C=CCn1c(=O)c2cnc(Nc3ccc(N4CCN(C)CC4)cc3)nc2n1-c1cccc(C(C)(C)O)n1 [AZD1775] + Nc1ccn([C@@H]2O[C@H](CO)[C@@H](O)C2(F)F)c(=O)n1 [Gemcitabine] (first compound max 1 µM, partner max 0.3 µM) | -0.065 | -0.0665 | 0.0066 | 0.0012 | -0.0313 | -0.0346 | -0.0482 | 0.124 | -0.0561 | -0.0678 | -0.0098 | -0.0595 | -0.0804 | -0.0504 | -0.0228 | 0.029 | -0.0094 | 0.43 | 0.81 | 0.811 | 0.821 | 0.362 | 0.674 | 0.847 | 0.948 | 0.46 | 0.217 | 0.905 | 0.7 | 0.559 | 0.631 | 0.486 | 0.724 | 0.839 | -0.0077 | 0.943
3 | CN(CCO)CC[C@H](CSc1ccccc1)Nc1ccc(S(=O)(=O)NC(=O)c2ccc(N3CCC([C@@H](O)c4ccccc4-c4ccc(Cl)cc4)CC3)cc2)cc1S(=O)(=O)C(F)(F)F [AZD4320] + CC(=O)O[C@H]1C(=O)[C@@]2(C)[C@H]([C@H](OC(=O)c3ccccc3)[C@]3(O)C[C@H](OC(=O)[C@H](O)[C@@H](NC(=O)c4ccccc4)c4ccccc4)C(C)=C1C3(C)C)[C@]1(OC(C)=O)CO[C@@H]1C[C@@H]2O [Paclitaxel] (first compound max 1 µM, 7x7, partner max 3 µM) | 0.0494 | -0.0433 | 0.0041 | 0.0272 | 0.101 | -0.0174 | 0.141 | 0.0126 | 0.112 | 0.124 | 0.237 | -0.0067 | 0.0661 | -0.0275 | 0.184 | 0.0272 | 0.0175 | 0.853 | 1 | 0.791 | 1 | 0.433 | 0.938 | 0.999 | 0.99 | 0.841 | 0.856 | 1 | 0.981 | 0.919 | 0.64 | 0.665 | 0.922 | 0.881 | -0.0024 | 0.981
4 | CN(CCO)CC[C@H](CSc1ccccc1)Nc1ccc(S(=O)(=O)NC(=O)c2ccc(N3CCC([C@@H](O)c4ccccc4-c4ccc(Cl)cc4)CC3)cc2)cc1S(=O)(=O)C(F)(F)F [AZD4320] + CS(=O)(=O)CCNCc1ccc(-c2ccc3ncnc(Nc4ccc(OCc5cccc(F)c5)c(Cl)c4)c3c2)o1 [Lapatinib] (first compound max 1 µM, 7x7, partner max 10 µM) | 0.0523 | 0.0767 | -0.0638 | 0.0318 | -0.0253 | -0.0519 | 0.0596 | -0.0047 | 0.0943 | -0.0109 | 0.0352 | 0.0035 | 0.0068 | -0.021 | 0.012 | 0.0382 | 0.0003 | 0.947 | 1 | 0.261 | 1 |  | 0.282 | 0.985 | 0.398 |  | 0.917 | 0.995 | 0.564 | 0.839 | 0.72 | 0.363 | 0.571 | 0.434 | 0.0806 | 0.958
5 | CN(CCO)CC[C@H](CSc1ccccc1)Nc1ccc(S(=O)(=O)NC(=O)c2ccc(N3CCC([C@@H](O)c4ccccc4-c4ccc(Cl)cc4)CC3)cc2)cc1S(=O)(=O)C(F)(F)F [AZD4320] + Nc1ccn([C@@H]2O[C@H](CO)[C@@H](O)C2(F)F)c(=O)n1 [Gemcitabine] (first compound max 1 µM, 7x7, partner max 0.3 µM) | -0.0009 | -0.0153 | -0.078 | 0.0147 | 0.0132 | 0.0268 | 0.067 | 0.0326 | -0.0121 | -0.0764 | 0.0845 | 0.0595 | 0.003 | 0.0148 | 0.0159 | 0.0048 | -0.0098 | 0.586 | 0.589 | 0.569 | 1 | 0.349 | 0.872 | 0.97 | 0.482 | 0.501 | 0.338 | 0.998 | 0.966 | 0.724 | 0.582 | 0.615 | 0.501 | 0.547 | -0.0171 | 0.95
6 | C[C@@H]1COCCN1c1cc(C2([S@](C)(=N)=O)CC2)nc(-c2ccnc3[nH]ccc23)n1 [AZD6738] + Nc1ccn([C@@H]2O[C@H](CO)[C@@H](O)C2(F)F)c(=O)n1 [Gemcitabine] (first compound max 10 µM, 7x7, partner max 0.3 µM) | 0.018 | 0.0606 | 0.0818 |  | 0.0306 | -0.0837 | -0.0523 | 0.128 | -0.0247 | -0.0525 | 0.0857 | 0.0071 | -0.0644 | 0.0682 | 0.0446 | 0.107 | 0.0509 | 0.313 | 0.888 | 0.852 | 0.866 | 0.398 | 0.794 | 0.749 | 0.975 | 0.553 | 0.368 | 0.936 | 0.777 | 0.817 | 0.631 | 0.526 | 0.83 | 0.837 | -0.007 | 0.958
7 | N#Cc1cnc(Nc2cc(NC[C@H]3CNCCO3)c(C(F)(F)F)cn2)cn1 [SRA737] + CCc1c2c(nc3ccc(O)cc13)-c1cc3c(c(=O)n1C2)COC(=O)[C@]3(O)CC [SN-38] (first compound max 10 µM, 7x7, partner max 0.3 µM) | -0.0041 | -0.067 | 0.112 | -0.0016 | -0.0739 | -0.111 | 0.0019 | 0.135 | -0.0679 | -0.0192 | -0.0347 | -0.0729 | -0.0554 | -0.006 | -0.0712 | -0.0473 | -0.0295 | 0.25 | 0.78 | 0.657 | 0.973 | 0.408 | 0.818 | 0.91 | 0.86 |  | 0.345 | 0.818 | 0.928 | 0.876 | 0.86 | 0.883 | 0.61 | 0.59 | -0.0185 | 0.893
